From US9655887B2, “Pharmaceutical composition and the use thereof, and application regime of said pharmaceutical composition for on-demand contraception” (BAYER PHARMA AKTIENGESELLSCHAFT, priority 2013, dated 2017)

target: EP2 subtype of the human PGE2 receptor (hEP2 receptor) (Homo sapiens, UniProt P43116); assay: cAMP antagonism test, human prostaglandin E2 (subtype EP2) receptor signal; assay type: cell-based
Description: 1. Detection of Antagonism to the Human Prostaglandin E2 (Subtype EP2) Receptor Signal
The binding of PGE2 to the EP2 subtype of the human PGE2 receptor induces the activation of membrane-located adenylate cyclases and leads to the formation of cAMP. In the presence of the phosphodiesterase inhibitor IBMX, the cAMP accumulated owing to this stimulation and released by cell lysis is used in a competitive detection method. In this test, the cAMP present in the lysate competes with a fluorescence-labelled cAMP (cAMP-d2) for binding to an Eu cryptate-labelled anti-cAMP antibody.
In the absence of cellular cAMP, a maximal signal is produced, which is attributable to the binding of this cAMP-d2 molecule to the antibody. After excitation of the […] at 337 nm, there is a fluorescence resonance energy transfer (FRET) to the Eu cryptate molecules of the anti-cAMP antibody (labelled therewith), followed by a long-lasting emission signal at 665 nm (and at […]). Both signals are measured in a suitable measurement instrument with a time delay, i.e. after decay of the background fluorescence. Any increase in the low FRET signal caused by prostaglandin E2 administration (measured as well ratio change=emission665nm/emission620nm*10000) indicates the action of antagonists.
1.2.1. Test for Antagonism (Data Per Well of a 384-Well Plate):
To a test plate with the substance solutions already added (0.05 μl; 100% DMSO, concentration range from 0.8 nM-16.5 nM) were added 4 μl of a cAMP-d2/cell suspension (625000 cells/ml). After a 20-minute preincubation at room temperature (RT), 2 μl of a 3×PGE2 solution (1.5 nM, in PBS-IBMX) were added and incubated in the presence of the agonist for a further 60 mins at RT (volume: […]). Next the reaction was stopped by addition of 2 μl of lysis buffer and incubated for a further 20 mins at RT before the actual measurement (volume: ˜8 μl).

Sequence of EP2 subtype of the human PGE2 receptor (hEP2 receptor) (P43116 whole entry): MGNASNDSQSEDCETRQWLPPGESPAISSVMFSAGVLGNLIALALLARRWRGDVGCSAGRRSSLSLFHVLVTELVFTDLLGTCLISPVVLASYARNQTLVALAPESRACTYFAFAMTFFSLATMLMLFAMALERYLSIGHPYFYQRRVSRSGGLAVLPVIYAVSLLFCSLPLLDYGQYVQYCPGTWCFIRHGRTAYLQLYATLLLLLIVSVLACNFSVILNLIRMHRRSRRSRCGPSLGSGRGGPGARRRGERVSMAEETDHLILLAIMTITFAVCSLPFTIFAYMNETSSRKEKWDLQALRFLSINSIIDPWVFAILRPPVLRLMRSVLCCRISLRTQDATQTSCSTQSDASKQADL

IC50, > 50 nM:
COCCNC(=O)c1ccc2nn(CC3CCN(C(=O)c4ccc(Oc5ccc(OC)cc5)cc4)CC3)cc2c1C [Example E17, N-(2-methoxyethyl)-2-({1-[4-(4-methoxyphenoxy)benzoyl]piperidin-4-yl}methyl)-4-methyl-2H-indazole-5-carboxamide]
COCCNC(=O)c1ccc2nn(CC3CCN(C(=O)c4ccc(OC5CCCC5)cc4)CC3)cc2c1C [Example E29, 2-({1-[4-(cyclopentyloxy)benzoyl]piperidin-4-yl}methyl)-N-(2-methoxyethyl)-4-methyl-2H-indazole-5-carboxamide]
Cc1c(C(=O)NCC(F)(F)F)ccc2nn(CC3CCN(C(=O)c4ccc(Oc5cccc(F)c5)cc4)CC3)cc12 [Example E131, 2-({1-[4-(3-fluorophenoxy)benzoyl]piperidin-4-yl}methyl)-4-methyl-N-(2,2,2-trifluoro-ethyl)-2H-indazole-5-carboxamide]
COCCNC(=O)c1ccc2nn(CC3CCN(C(=O)c4ccc(Br)cc4)CC3)cc2c1C [Example E52, 2-{[1-(4-bromobenzoyl)piperidin-4-yl]methyl}-N-(2-methoxyethyl)-4-methyl-2H-indazole-5-carboxamide]
COCCNC(=O)c1ccc2nn(CC3CCN(C(=O)c4ccc(-c5ccc(Cl)cc5OC)cc4)CC3)cc2c1C [Example E194, 2-({1-[(4′-chloro-2′-methoxybiphenyl-4-yl)carbonyl]piperidin-4-yl}methyl)-N-(2-methoxyethyl)-4-methyl-2H-indazole-5-carboxamide]
Cc1c(C(=O)NCCOC2CC2)ccc2nn(CC3CN(C(=O)c4ccc(OC(F)(F)F)cc4)C3)cc12 [Example E100, N-[2-(cyclopropyloxy)ethyl]-4-methyl-2-({1-[4-(trifluoromethoxy)benzoyl]azetidin-3-yl}methyl)-2H-indazole-5-carboxamide]
Cc1c(C(=O)NCCOCC2CC2)ccc2nn(CC3CCN(C(=O)c4ccc(Cl)cc4)CC3)cc12 [Example E59, 2-{[1-(4-chlorobenzoyl)piperidin-4-yl]methyl}-N-[2-(cyclopropylmethoxy)ethyl]-4-methyl-2H-indazole-5-carboxamide]
COCCNC(=O)c1ccc2nn(CC3CCN(C(=O)c4cccc(C(F)(F)F)c4)CC3)cc2c1C [Example E25]
COCCNC(=O)c1ccc2nn(CC3CCN(C(=O)c4ccc(Oc5ccc(F)cc5F)cc4)CC3)cc2c1C [Example E171, 2-({1-[4-(2,4-difluorophenoxy)benzoyl]piperidin-4-yl}methyl)-N-(2-methoxyethyl)-4-methyl-2H-indazole-5-carboxamide]
Cc1c(C(=O)NCC(F)(F)F)ccc2nn(CC3CCN(C(=O)c4ccc(Oc5ccc(F)c(F)c5)cc4)CC3)cc12 [Example E137, 2-({1-[4-(3,4-difluorophenoxy)benzoyl]piperidin-4-yl}methyl)-4-methyl-N-(2,2,2-trifluoroethyl)-2H-indazole-5-carboxamide]
Cc1c(C(=O)NCCOCC2CC2)ccc2nn(CC3CCN(C(=O)c4ccc(C5CC5)cc4)CC3)cc12 [Example E64, 2-{[1-(4-cyclopropylbenzoyl)piperidin-4-yl]methyl}-N-[2-(cyclopropylmethoxy)ethyl]-4-methyl-2H-indazole-5-carboxamide]
COCCNC(=O)c1ccc2nn(CC3CCN(C(=O)c4ccc(-c5ccc(F)cc5Cl)cc4)CC3)cc2c1C [Example E197, 2-({1-[(2′-chloro-4′-fluorobiphenyl-4-yl)carbonyl]piperidin-4-yl}methyl)-N-(2-methoxy-ethyl)-4-methyl-2H-indazole-5-carboxamide]
COCCNC(=O)c1ccc2nn(CC3CCN(C(=O)c4ccc(N5CCOCC5)cc4F)CC3)cc2c1C [Example E51, 2-({1-[2-fluoro-4-[morpholin-4-yl)benzoyl]piperidin-4-yl}methyl)-N-(2-methoxyethyl)-4-methyl-2H-indazole-5-carboxamide]
COc1ccc(-c2ccc(C(=O)N3CCC(Cn4cc5c(C)c(C(=O)NCC(F)(F)F)ccc5n4)CC3)cc2)c(C)c1 [Example E141, 2-({1-[(4′-methoxy-2′-methylbiphenyl-4-yl)carbonyl]piperidin-4-yl}methyl)-4-methyl-N-(2,2,2-trifluoroethyl)-2H-indazole-5-carboxamide]
Cc1c(C(=O)NCCOCC2CC2)ccc2nn(CC3CN(C(=O)c4ccc(Cl)cc4)C3)cc12 [Example E102, 2-{[1-(4-chlorobenzoyl)azetidin-3-yl]methyl}-N-[2-(cyclopropylmethoxy)ethyl]-4-methyl-2H-indazole-5-carboxamide]
COCCNC(=O)c1ccc2nn(CC3CCN(C(=O)c4ccc(C)cc4F)CC3)cc2c1C [Example E9, 2-{[1-(2-fluoro-4-methylbenzoyl)piperidin-4-yl]methyl}-N-(2-methoxyethyl)-4-methyl-2H-indazole-5-carboxamide]
COCCNC(=O)c1ccc2nn(CC3CCN(C(=O)c4ccc(-c5ccncc5)c(C)c4)CC3)cc2c1C [Example E206, N-(2-methoxyethyl)-4-methyl-2-({1-[3-methyl-4-(4-pyridyl)benzoyl]piperidin-4-yl}-methyl)-2H-indazole-5-carboxamide]
Cc1c(C(=O)NCCOC(F)(F)F)ccc2nn(CC3CCN(C(=O)c4ccc(Oc5ccc(C(F)(F)F)cc5)cc4)CC3)cc12 [Example E80, 4-methyl-N-[2-(trifluoromethoxy)ethyl]-2-[(1-{4-[4-(trifluoromethyl)phenoxy]-benzoyl}piperidin-4-yl)methyl]-2H-indazole-5-carboxamide]
COCCNC(=O)c1ccc2nn(CC3CCN(C(=O)c4ccc(OC)cc4)CC3)cc2c1C [Example E20, 2-{[1-(4-methoxybenzoyl)piperidin-4-yl]methyl}-N-(2-methoxyethyl)-4-methyl-2H-indazole-5-carboxamide]
COCCNC(=O)c1ccc2nn(CC3CCN(C(=O)c4ccc(OC(F)F)cc4)CC3)cc2c1C [Example E178, 2-({1-[4-(difluoromethoxy)benzoyl]piperidin-4-yl}methyl)-N-(2-methoxyethyl)-4-methyl-2H-indazole-5-carboxamide]
COCCNC(=O)c1ccc2nn(CC3CCN(C(=O)c4ccc(C#N)cc4)CC3)cc2c1C [Example E31, 2-{[1-(4-cyanobenzoyl)piperidin-4-yl]methyl}-N-(2-methoxyethyl)-4-methyl-2H-indazole-5-carboxamide]
COCCNC(=O)c1ccc2nn(CC3CN(C(=O)c4ccc(C5CC5)cc4)C3)cc2c1C [Example E94, 2-{[1-(4-cyclopropylbenzoyl)azetidin-3-yl]methyl}-N-(2-methoxyethyl)-4-methyl-2H-indazole-5-carboxamide]
Cc1c(C(=O)NCC(F)(F)F)ccc2nn(CC3CN(C(=O)c4ccc(Oc5ccc(C(F)(F)F)cc5)cc4)C3)cc12 [Example E114, 4-methyl-N-(2,2,2-trifluoroethyl)-2-[(1-{4-[4-(trifluoromethyl)phenoxy]benzoyl}-azetidin-3-yl)methyl]-2H-indazole-5-carboxamide]
